ChEMBL document CHEMBL1134758, “New probes of the agonist binding site of metabotropic glutamate receptors” (Bioorg Med Chem Lett, 2001)
pEC50: −log10 of the molar value.

How the values were obtained:
[1] = target: T1, Metabotropic glutamate receptor 8 (Rattus norvegicus, UniProt P70579); assay: Agonist activity in rat at Metabotropic glutamate receptor 8 expressed in HEK293 cells; assay type: functional, cell-based
[2] = target: Metabotropic glutamate receptor 1 (Rattus norvegicus, UniProt P23385); assay: Agonist activity in rat at mGlu1a receptor expressed in HEK293 cells; assay type: functional, cell-based
Chain of Metabotropic glutamate receptor 1 (P23385 whole entry): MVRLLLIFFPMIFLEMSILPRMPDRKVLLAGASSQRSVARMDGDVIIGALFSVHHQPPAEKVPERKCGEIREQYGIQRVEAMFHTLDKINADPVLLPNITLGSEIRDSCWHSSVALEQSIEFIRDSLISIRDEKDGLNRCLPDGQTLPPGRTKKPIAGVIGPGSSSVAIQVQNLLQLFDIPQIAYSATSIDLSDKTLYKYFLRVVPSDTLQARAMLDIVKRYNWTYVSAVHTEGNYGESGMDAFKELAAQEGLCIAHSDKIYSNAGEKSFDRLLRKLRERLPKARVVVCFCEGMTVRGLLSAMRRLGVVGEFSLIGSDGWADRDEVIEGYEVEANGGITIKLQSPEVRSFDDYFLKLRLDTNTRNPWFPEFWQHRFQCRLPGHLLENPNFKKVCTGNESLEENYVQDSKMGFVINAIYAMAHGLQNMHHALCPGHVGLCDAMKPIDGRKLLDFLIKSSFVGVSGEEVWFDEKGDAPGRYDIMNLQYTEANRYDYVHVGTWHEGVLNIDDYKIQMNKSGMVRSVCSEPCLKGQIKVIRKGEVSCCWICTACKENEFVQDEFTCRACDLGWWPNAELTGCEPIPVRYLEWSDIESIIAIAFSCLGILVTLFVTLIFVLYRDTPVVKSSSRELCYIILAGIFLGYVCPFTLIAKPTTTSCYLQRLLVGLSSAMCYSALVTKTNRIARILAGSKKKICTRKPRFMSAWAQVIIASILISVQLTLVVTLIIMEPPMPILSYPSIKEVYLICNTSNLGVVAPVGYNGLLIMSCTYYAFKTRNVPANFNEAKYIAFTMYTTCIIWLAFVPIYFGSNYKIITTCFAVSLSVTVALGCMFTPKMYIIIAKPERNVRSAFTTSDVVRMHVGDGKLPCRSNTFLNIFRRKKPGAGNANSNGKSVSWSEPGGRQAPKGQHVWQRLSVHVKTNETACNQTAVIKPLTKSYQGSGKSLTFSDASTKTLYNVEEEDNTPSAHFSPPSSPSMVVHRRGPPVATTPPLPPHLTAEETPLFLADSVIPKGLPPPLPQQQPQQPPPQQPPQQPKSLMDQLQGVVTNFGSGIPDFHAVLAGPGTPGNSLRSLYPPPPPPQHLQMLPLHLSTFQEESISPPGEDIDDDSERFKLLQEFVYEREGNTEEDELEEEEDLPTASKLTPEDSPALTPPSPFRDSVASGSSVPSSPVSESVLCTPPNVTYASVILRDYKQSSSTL

[3] = target: Metabotropic glutamate receptor 2 (Rattus norvegicus, UniProt P31421); assay: Agonist activity in rat at mGlu2 receptor expressed in HEK293 cells; assay type: functional, cell-based
Chain of Metabotropic glutamate receptor 2 (P31421 whole entry): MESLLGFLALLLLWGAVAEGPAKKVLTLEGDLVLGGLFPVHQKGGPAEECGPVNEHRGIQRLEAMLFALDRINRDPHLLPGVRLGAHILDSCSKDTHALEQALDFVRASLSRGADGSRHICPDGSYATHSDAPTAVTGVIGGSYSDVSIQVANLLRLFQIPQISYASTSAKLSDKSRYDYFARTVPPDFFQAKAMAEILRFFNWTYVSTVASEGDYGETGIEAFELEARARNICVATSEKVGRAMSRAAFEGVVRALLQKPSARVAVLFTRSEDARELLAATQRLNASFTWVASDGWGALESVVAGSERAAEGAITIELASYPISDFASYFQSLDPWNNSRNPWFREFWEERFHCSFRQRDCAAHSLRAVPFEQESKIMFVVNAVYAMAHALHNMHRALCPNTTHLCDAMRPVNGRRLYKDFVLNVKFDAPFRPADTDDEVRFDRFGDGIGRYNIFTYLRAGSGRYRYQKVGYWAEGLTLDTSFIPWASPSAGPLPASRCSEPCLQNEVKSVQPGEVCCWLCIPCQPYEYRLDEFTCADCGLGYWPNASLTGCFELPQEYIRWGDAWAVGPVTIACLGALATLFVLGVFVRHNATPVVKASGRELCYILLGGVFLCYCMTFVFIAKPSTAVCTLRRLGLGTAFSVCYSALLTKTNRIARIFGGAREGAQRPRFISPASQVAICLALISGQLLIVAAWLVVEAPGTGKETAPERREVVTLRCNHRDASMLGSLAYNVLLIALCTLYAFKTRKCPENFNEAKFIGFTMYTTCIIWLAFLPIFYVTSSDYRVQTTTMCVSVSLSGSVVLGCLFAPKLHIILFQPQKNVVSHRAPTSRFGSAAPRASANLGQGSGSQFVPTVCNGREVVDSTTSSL

[4] = target: T1, Metabotropic glutamate receptor 8; assay: Agonist activity in rat at mGlu8a receptor expressed in HEK293 cells; assay type: functional, cell-based
[5] = target: Metabotropic glutamate receptor 1 (Rattus norvegicus) (UniProt P23385); assay: Maximal effect obtained with 1 mM of the drug expressed as percent of maxiaml effect of glutamate in rat at mGlu1a receptor expressed in HEK293 cells; assay type: functional, cell-based
Chain of Metabotropic glutamate receptor 1 (Rattus norvegicus) (P23385 19-1199 limits assumed): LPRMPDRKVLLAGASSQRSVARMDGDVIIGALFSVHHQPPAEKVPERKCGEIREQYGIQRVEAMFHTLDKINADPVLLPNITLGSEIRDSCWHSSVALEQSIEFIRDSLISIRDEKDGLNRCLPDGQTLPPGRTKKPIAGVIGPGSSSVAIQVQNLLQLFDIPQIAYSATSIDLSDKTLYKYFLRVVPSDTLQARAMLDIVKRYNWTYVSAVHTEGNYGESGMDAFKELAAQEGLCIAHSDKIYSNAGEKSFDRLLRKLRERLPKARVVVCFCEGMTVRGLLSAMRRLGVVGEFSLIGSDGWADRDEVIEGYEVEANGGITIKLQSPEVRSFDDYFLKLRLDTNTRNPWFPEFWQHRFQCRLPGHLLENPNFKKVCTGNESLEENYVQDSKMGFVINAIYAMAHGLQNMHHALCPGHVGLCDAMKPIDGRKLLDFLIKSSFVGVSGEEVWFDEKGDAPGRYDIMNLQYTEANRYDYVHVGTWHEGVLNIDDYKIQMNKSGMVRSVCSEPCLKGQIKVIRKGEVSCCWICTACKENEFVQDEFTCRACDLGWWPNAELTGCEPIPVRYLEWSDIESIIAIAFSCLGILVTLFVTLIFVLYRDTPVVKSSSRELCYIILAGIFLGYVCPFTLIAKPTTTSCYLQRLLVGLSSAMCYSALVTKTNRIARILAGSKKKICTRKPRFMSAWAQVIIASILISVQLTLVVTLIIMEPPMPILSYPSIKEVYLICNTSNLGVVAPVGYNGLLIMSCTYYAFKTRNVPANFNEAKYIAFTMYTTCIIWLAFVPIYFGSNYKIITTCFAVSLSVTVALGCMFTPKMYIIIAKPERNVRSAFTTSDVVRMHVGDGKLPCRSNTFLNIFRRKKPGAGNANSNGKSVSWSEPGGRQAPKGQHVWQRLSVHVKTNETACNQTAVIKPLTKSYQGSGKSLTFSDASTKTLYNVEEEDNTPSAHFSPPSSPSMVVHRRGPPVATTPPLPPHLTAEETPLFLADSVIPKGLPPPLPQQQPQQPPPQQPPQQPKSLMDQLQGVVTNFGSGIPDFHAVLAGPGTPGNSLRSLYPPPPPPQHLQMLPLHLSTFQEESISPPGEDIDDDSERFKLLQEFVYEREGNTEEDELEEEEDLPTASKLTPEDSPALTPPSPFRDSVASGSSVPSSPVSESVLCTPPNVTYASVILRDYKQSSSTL

[6] = target: Metabotropic glutamate receptor 2 (Rattus norvegicus) (UniProt P31421); assay: (§1) Maximal effect obtained with 1 mM of the drug expressed as percent of maxiaml effect of glutamate in rat at mGlu2 receptor expressed in HEK293 cells; assay type: functional, cell-based
Chain of Metabotropic glutamate receptor 2 (Rattus norvegicus) (P31421 19-872 limits assumed): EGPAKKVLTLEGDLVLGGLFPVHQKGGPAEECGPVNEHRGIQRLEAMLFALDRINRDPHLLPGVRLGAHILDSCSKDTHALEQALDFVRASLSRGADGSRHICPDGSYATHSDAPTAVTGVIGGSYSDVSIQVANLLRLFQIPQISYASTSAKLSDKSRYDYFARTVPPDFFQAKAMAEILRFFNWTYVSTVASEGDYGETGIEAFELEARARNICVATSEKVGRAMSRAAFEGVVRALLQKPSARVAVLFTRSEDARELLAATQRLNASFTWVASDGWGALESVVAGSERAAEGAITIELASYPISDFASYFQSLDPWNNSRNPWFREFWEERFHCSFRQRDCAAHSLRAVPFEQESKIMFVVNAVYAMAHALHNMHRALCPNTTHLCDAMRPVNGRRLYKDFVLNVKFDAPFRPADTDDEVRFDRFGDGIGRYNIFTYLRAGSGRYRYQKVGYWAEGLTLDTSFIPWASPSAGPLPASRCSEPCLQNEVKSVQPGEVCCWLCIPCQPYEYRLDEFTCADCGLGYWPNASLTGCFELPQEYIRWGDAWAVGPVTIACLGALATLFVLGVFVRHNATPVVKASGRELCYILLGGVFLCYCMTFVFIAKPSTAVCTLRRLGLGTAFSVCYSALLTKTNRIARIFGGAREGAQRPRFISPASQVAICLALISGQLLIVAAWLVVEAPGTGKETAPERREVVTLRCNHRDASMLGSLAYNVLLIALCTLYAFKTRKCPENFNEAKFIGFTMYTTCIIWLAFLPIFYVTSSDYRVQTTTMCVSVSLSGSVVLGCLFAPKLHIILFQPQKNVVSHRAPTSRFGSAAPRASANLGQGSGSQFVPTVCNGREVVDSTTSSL

[7] = target: Metabotropic glutamate receptor 8 (Rattus norvegicus) (UniProt P70579); assay: Maximal effect obtained with 1 mM of the drug expressed as percent of maxiaml effect of glutamate in rat at mGlu8a receptor expressed in HEK293 cells; assay type: functional, cell-based
Chain of Metabotropic glutamate receptor 8 (Rattus norvegicus) (P70579 whole entry): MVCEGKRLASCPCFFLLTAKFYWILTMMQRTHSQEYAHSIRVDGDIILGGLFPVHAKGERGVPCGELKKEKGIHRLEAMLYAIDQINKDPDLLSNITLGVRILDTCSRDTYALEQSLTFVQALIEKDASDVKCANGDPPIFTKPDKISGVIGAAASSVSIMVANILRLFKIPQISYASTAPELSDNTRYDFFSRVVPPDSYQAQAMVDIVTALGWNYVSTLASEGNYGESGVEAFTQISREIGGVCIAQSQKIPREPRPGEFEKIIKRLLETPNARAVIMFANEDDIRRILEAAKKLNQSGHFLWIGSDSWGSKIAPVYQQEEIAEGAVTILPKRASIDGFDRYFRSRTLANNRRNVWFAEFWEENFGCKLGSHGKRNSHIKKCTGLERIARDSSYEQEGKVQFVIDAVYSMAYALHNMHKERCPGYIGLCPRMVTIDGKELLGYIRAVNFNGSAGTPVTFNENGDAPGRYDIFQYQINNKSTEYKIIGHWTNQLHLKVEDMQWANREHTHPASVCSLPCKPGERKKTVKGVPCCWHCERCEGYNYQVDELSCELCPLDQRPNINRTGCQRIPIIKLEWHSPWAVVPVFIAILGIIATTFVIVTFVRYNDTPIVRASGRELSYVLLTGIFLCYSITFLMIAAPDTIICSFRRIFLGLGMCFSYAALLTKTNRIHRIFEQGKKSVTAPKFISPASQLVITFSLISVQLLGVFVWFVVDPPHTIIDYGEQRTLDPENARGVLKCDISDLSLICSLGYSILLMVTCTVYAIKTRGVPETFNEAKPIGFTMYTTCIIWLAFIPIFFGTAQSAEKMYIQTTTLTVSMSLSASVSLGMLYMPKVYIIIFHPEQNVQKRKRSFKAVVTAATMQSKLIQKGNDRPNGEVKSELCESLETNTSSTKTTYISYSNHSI

[8] = target: Metabotropic glutamate receptor 2 (Rattus norvegicus) (UniProt P31421); assay: as §1; assay type: cell-based

T1 sequence (P70579 whole entry): as above

N[C@@H](CCC(=O)O)C(=O)O [GLUTAMIC ACID] was tested, and the pEC50 [1] was 5.10.
Compound N[C@@H](C[C@H](O)C(=O)O)C(=O)O has a pEC50 [2] of 4.96, a pEC50 [3] of 3.86 and a pEC50 [4] of 4.28. The Rmax [5] was 95%, the Rmax [6] was 60% and the Rmax [7] was 94%.
With N[C@@H](C[C@@H](O)C(=O)O)C(=O)O the pEC50 [2] was 3.43, the pEC50 [3] was 3.79 and the pEC50 [4] was 4.16. It also gave an Rmax [5] of 70%, an Rmax [7] of 54% and an Rmax [8] of 52%.
